For test [1], the system named is spontaneously hypertensive rats (SHR). In words: Blood-pressure lowering effect after oral administration to SHR. The test is classed as in vivo. The following applies: administered orally, dose of 50 mg/kg.
In a further test the test system is SHR. Description: Hypotensive activity after repeated administration (tolerance). Format: in vivo, rats. The following applies: administered to SHR for 15 consecutive days.
Test [2] relates to production of PG 12 in vascular tissues. In words: Effect on production of PG I2 in vascular tissues (platelet lysate or aorta microsome). Format: biochemical. The following applies: pig's blood platelet lysate or microsome obtained from pig's aorta.

Structures are written as SMILES.

As for `CCCCCCCC[C@H](CN(CC)C(=O)N1Cc2ccccc2C[C@H]1C(=O)O)C(=O)OCC` [calcium (3S)-2-[N-((2R)-2-ethoxycarbonyl-n-decyl)-N-ethylcarbamoyl] - 1,2,3,4-tetrahydro-isoquinoline-3-carboxylate], in test [1], the “decrease in the blood pressure” value is recorded as “about 35 mmHg” and the “duration of blood-pressure lowering effect” value is on record as “more than 6 hours”. In addition, the “potency of hypotensive activity during repeated administration” value with SHR is recorded as “almost the same potency of its hypotensive activity”.
Turning to `CCCCCCCCCC[C@H](CN(CC)C(=O)N1Cc2ccccc2C[C@H]1C(=O)O)C(=O)O` [(3S)-2-[N-((2R)-2-carboxy-n-dodecyl)-N-ethylcarbamoyl]-1,2,3,4-tetrahydroisoquinoline-3-carboxylic acid], in test [2], the “increase in the formation of PG I2 as compared with a control group” value was 62%.
Turning to `CCOC(=O)[C@H](CCc1ccccc1)CN(CC)C(=O)N1Cc2ccccc2C[C@H]1C(=O)O` [(3S)-2-[N-((2R)-2-ethoxycarbonyl-4-phenyl-n-butyl)-N-ethylcarbamoyl]-1,2,3,4-tetrahydroisoquinoline-3-carboxylic acid], in test [1], the “decrease in the blood pressure” value is on record as “about 35 mmHg” and the “duration of blood-pressure lowering effect” value is on record as “more than 6 hours”.
